{
  "source": "patent EP3906926A1",
  "about": "“PROLINE HYDROXYLASE INHIBITORS FOR USE IN THE SKELETAL MUSCLE REGENERATION” (Policlinico San Donato S.p.A.- Istituto di Ricovero e Cura …, priority 2020, dated 2021)",
  "key": {"HIF-1α": {"tested_on": "HIF-1α", "assay": "Western blot of HIF-1α nuclear translocation", "format": "cell-based, murine", "conditions": "PLG at EC50 (250 µM) for 24 hours, vs untreated control; Lamin A/C housekeeper", "procedure": "(§1) For nuclei separation, 5 x 10^6 cells were collected after enzymatic digestion with trypsin (Merck), centrifuged at the maximum speed, resuspended in 400 µl of Buffer A (10 mM KCl, 0.1 mM EDTA, 1 mM DTT, 10 mM Hepes, pH 7.9), containing protease and phosphatase inhibitors cocktail (Merck), and incubated on ice for 20 minutes. Then, 10% NP40 was added to the cell suspension, mixed for 40 seconds, and centrifuged 40 seconds at the maximum speed. After centrifugation, the pellet was resuspended in 80 µl of Buffer C (0.4M NaCl, 1 mM EDTA, 1 mM DTT, 20 mM Hepes, pH 7.9), containing a protease and phosphatase inhibitors cocktail, and then mixed for 30 minutes at 4°C at the maximum speed. Finally, the nuclear suspension was centrifuged for 5 minutes at 4°C at the maximum speed, collected and transferred in a new tube. The total protein content was determined with the BCA Protein Assay Kit (Pierce), according to the manufacturer's instructions.\n(§2) Proteins were denaturated by boiling for 10 minutes in sample buffer (0.6 g/100 mL Tris, 2 g/100 mL SDS, 10% glycerol, 1% 2-mercaptoethanol, pH 6.8) and loaded into 10% SDS-PAGE gel, then transferred onto a nitrocellulose membrane (Trans-blot, Bio-Rad Laboratories) by electroblotting. Nitrocellulose membranes were incubated with a blocking solution containing 5% (w/v) non-fat dry milk or 5% (w/v) BSA (Merck) in Tris-buffer saline with 0.1% Tween® 20 (TBS-T) for 1 hour. […] Membranes were washed three times for 10 minutes with TBS-T, and then incubated with the appropriate anti-mouse, anti-rabbit, or anti-goat HRP-conjugated secondary antibodies (Dako, Agilent Technologies), 1:2000 dilution, for 1 hour at room temperature. After three washes for 10 minutes with TBS-T, the immunoreactive bands were visualized using the enhanced chemiluminescence detection kit reagents (ECL Advance, GeHealthcare), according to the manufacturer's instructions.\nas §1, with “For total proteins extraction, 7.5 x 10^4 cells were seeded and harvested at 7th days of skeletal muscle differentiation, as previously described. Cells were collected after enzymatic digestion with trypsin (Merck), lysed by sonication and centrifuged at 800 xg for 10 minutes. Supernatant was used to determine total protein content with the BCA Protein Assay Kit (Pierce), according to the manufacturer's instructions. For” for “For”, “(0.4 M” for “(0.4M”"}, "murine myoblasts C2C12": {"tested_on": "murine myoblasts C2C12", "assay": "Skeletal muscle differentiation, MHC immunofluorescence (fusion and differentiation indexes)", "format": "cell-based", "conditions": "250 µM PLG 24 hours in GM, then 7 days in DM without inhibitor; vs untreated controls", "procedure": "(§3) The DM was changed every day for 7 days. Cells were analyzed at 24 hours post-treatment (PT), at 3rd and 7th days of skeletal muscle differentiation.\nAfter differentiation for 7 days in DM, cells were washed with phosphate saline buffer (PBS) and fixed for 15 minutes in 4% (w/v) paraformaldehyde at room temperature. For permeabilization and blocking, cells were incubated for 1 hour in the presence of PBS 0.1% (v/v) Triton X-100 (TX-100, Merck) and 5% (w/v) FBS (Merck) at room temperature. […] After incubation, cells were washed three times in PBS and incubated for 1 hour at room temperature with an anti-mouse FITC-conjugated secondary antibody (Jackson ImmunoResearch), diluted 1:200. […] Myogenesis was assessed by measuring the myotube area and the number of myonuclei per myotube using a fluorescent microscope (Olympus TH4-200) equipped with an acquisition camera. To quantify both differentiation and fusion indexes, ten fields were chosen randomly and, for each field, a minimum of one hundred myosin-positive myotubes with more than two myonuclei were measured using the ImageJ v1.49o software. The area and the number of nuclei per myotube was the mean of ten measurements averaged from three different experiments.\nas §3"}, "MyoD": {"tested_on": "MyoD", "assay": "Western blot of MyoD nuclear localization", "format": "cell-based, murine", "conditions": "250 µM PLG for 24 hours", "procedure": "as §1, §2\nas §1, with “For total proteins extraction, 7.5 x 10^4 cells were seeded and harvested at 7th days of skeletal muscle differentiation, as previously described. Cells were collected after enzymatic digestion with trypsin (Merck), lysed by sonication and centrifuged at 800 xg for 10 minutes. Supernatant was used to determine total protein content with the BCA Protein Assay Kit (Pierce), according to the manufacturer's instructions. For” for “For”, “(0.4 M” for “(0.4M”"}, "Myogenin": {"tested_on": "Myogenin", "assay": "qPCR of Myogenin during differentiation", "format": "cell-based, murine", "conditions": "day 3 of differentiation, 250 µM PLG pre-treated myoblasts", "procedure": "(§4) Total RNA was isolated using ReliaPrep™ RNA Miniprep Systems (Promega), and reverse transcribed to cDNA using the iScript cDNA synthesis kit (BioRad), according to the Manufacturer's instructions. Real-Time Quantitative PCR was performed on 10 ng of cDNA template, 0.2 µM primers, and GoTaq® qPCR Master Mix (Promega) in 20 µl final volume using a StepOnePlus® Real-Time PCR System (Applied Biosystem). […] RPL13 was used as the housekeeping gene. The amplification program consisted in an initial denaturation at 95°C for 3 minutes, followed by 40 cycles of 5 seconds each at 95°C and 30 seconds at 57°C; WNT7a was amplified at 53°C. Relative quantification of target genes was performed in triplicate and calculated by the equation 2^-ΔΔCt.\nas §4, with “ReliaPrepTM” for “ReliaPrep™”, “2-ΔΔCt.” for “2^-ΔΔCt.”"}, "MHC": {"tested_on": "MHC", "assay": "qPCR of MHC during differentiation", "format": "cell-based, murine", "conditions": "day 7 of differentiation, 250 µM PLG pre-treated myoblasts", "procedure": "as §4\nas §4, with “ReliaPrepTM” for “ReliaPrep™”, “2-ΔΔCt.” for “2^-ΔΔCt.”"}, "C2C12 murine myoblasts [1]": {"tested_on": "C2C12 murine myoblasts", "assay": "RealTime-Glo MT Cell Viability Assay", "conditions": "at EC50 concentration (250 µM), 24 hours"}, "PHDs": {"tested_on": "PHDs", "assay": "ODD-luciferase reporter assay (Dual-Glo) for PHDs inhibition", "conditions": "C2C12 myoblasts transfected with ODD-luciferase-pcDNA3; 24 hours at 50, 100, 250, 500, 1000 µM, normoxic conditions; linear regression"}, "VEGF": {"tested_on": "VEGF", "assay": "qPCR of HIF-1α target gene VEGF", "format": "cell-based, murine", "conditions": "PLG at EC50 (250 µM), 24 hours", "procedure": "as §4\nas §4, with “ReliaPrepTM” for “ReliaPrep™”, “2-ΔΔCt.” for “2^-ΔΔCt.”"}, "C2C12 murine myoblasts [2]": {"tested_on": "C2C12 murine myoblasts", "assay": "CellTox Cytotoxicity Assay", "conditions": "at EC50 concentration (250 µM), 24 hours"}, "PHD2": {"tested_on": "PHD2", "assay": "qPCR of HIF-1α target gene PHD2", "format": "cell-based, murine", "conditions": "PLG at EC50 (250 µM), 24 hours", "procedure": "as §4\nas §4, with “ReliaPrepTM” for “ReliaPrep™”, “2-ΔΔCt.” for “2^-ΔΔCt.”"}},
  "data": [
    {"smiles": "COC(=O)CCC(=O)NNC(=O)c1cc2c(cn1)[nH]c1ccccc12", "note": "[PLG8]", "values": [
      {"measurement": "HIF-1α nuclear translocation, protein increase", "setting": "HIF-1α", "value": 1.5, "unit": "fold"},
      {"measurement": "fusion index", "setting": "murine myoblasts C2C12", "value": "no significant changes"},
      {"measurement": "increase in the differentiation index", "setting": "murine myoblasts C2C12", "value": 1.15, "unit": "fold"},
      {"measurement": "increase of the nuclear localization of MyoD", "setting": "MyoD", "value": 1.4, "unit": "fold"},
      {"measurement": "increase of Myogenin", "setting": "Myogenin", "value": 1.4, "unit": "fold"},
      {"measurement": "enhancement of MHC", "setting": "MHC", "value": 1.5, "unit": "fold"},
      {"measurement": "decrease in the proliferation rate", "setting": "C2C12 murine myoblasts [1]", "value": 60, "unit": "%"},
      {"measurement": "EC50", "setting": "PHDs", "value": 250, "unit": "µM"},
      {"measurement": "enhancement of VEGF", "setting": "VEGF", "value": 1.6, "unit": "fold"},
      {"measurement": "Cell toxicity", "setting": "C2C12 murine myoblasts [2]", "value": "not due to a toxic effect"},
      {"measurement": "increase of PHD2", "setting": "PHD2", "value": 1.8, "unit": "fold"}
    ]},
    {"smiles": "O=C(O)CCC(=O)NNC(=O)c1cc2ccccc2cn1", "note": "[PLG2]", "values": [
      {"measurement": "HIF-1α nuclear translocation, protein increase", "setting": "HIF-1α", "value": 1.3, "unit": "fold"},
      {"measurement": "fusion index", "setting": "murine myoblasts C2C12", "value": "no significant changes"},
      {"measurement": "increase in the differentiation index", "setting": "murine myoblasts C2C12", "value": 1.15, "unit": "fold"},
      {"measurement": "increase of the nuclear localization of MyoD", "setting": "MyoD", "value": 1.2, "unit": "fold"},
      {"measurement": "increase of Myogenin", "setting": "Myogenin", "value": 1.2, "unit": "fold"},
      {"measurement": "enhancement of MHC", "setting": "MHC", "value": 1.3, "unit": "fold"},
      {"measurement": "decrease in the proliferation rate", "setting": "C2C12 murine myoblasts [1]", "value": 20, "unit": "%"},
      {"measurement": "EC50", "setting": "PHDs", "value": 250, "unit": "µM"},
      {"measurement": "enhancement of VEGF", "setting": "VEGF", "value": 1.1, "unit": "fold"},
      {"measurement": "Cell toxicity", "setting": "C2C12 murine myoblasts [2]", "value": "not due to a toxic effect"},
      {"measurement": "increase of PHD2", "setting": "PHD2", "value": "no significant changes"}
    ]},
    {"smiles": "COC(=O)CCC(=O)NNC(=O)c1cc(N(C)C)ccn1", "note": "[PLG23]", "values": [
      {"measurement": "EC50", "setting": "PHDs", "value": "undetectable"}
    ]},
    {"smiles": "O=C(O)CCC(=O)NNC(=O)c1cc2c(cn1)[nH]c1ccccc12", "note": "[PLG6]", "values": [
      {"measurement": "EC50", "setting": "PHDs", "value": "undetectable"}
    ]},
    {"smiles": "COC(=O)CCC(=O)NNC(=O)c1cc2ccccc2cn1", "note": "[PLG11]", "values": [
      {"measurement": "HIF-1α nuclear translocation, protein increase", "setting": "HIF-1α", "value": 1.5, "unit": "fold"},
      {"measurement": "fusion index", "setting": "murine myoblasts C2C12", "value": "no significant changes"},
      {"measurement": "increase in the differentiation index", "setting": "murine myoblasts C2C12", "value": 1.2, "unit": "fold"},
      {"measurement": "increase of the nuclear localization of MyoD", "setting": "MyoD", "value": 1.3, "unit": "fold"},
      {"measurement": "increase of Myogenin", "setting": "Myogenin", "value": 1.4, "unit": "fold"},
      {"measurement": "enhancement of MHC", "setting": "MHC", "value": 1.4, "unit": "fold"},
      {"measurement": "decrease in the proliferation rate", "setting": "C2C12 murine myoblasts [1]", "value": 17, "unit": "%"},
      {"measurement": "EC50", "setting": "PHDs", "value": 250, "unit": "µM"},
      {"measurement": "enhancement of VEGF", "setting": "VEGF", "value": 1.2, "unit": "fold"},
      {"measurement": "Cell toxicity", "setting": "C2C12 murine myoblasts [2]", "value": "not due to a toxic effect"},
      {"measurement": "increase of PHD2", "setting": "PHD2", "value": 1.3, "unit": "fold"}
    ]},
    {"smiles": "CN(C)c1ccnc(C(=O)NNC(=O)CCC(=O)O)c1", "note": "[PLG19]", "values": [
      {"measurement": "EC50", "setting": "PHDs", "value": "undetectable"}
    ]}
  ]
}
